From patent US5013722A, “Cholecystokinin analogs for controlling appetite” (Hoffmann-LaRoche Inc., priority 1989, dated 1991)
Where a SMILES comes first, the peptide text is derived from it. [ ]: non-standard residue; d: D form. The star is where a group is joined. Thr(SO3H) = C[C@@H](OS(=O)(=O)O)[C@H](N)C(=O)O; sY = N[C@@H](Cc1ccc(OS(=O)(=O)O)cc1)C(=O)O; N(CH2CH2NHAc)Gly = CC(=O)NCCNCC(=O)O; NMeF = CN[C@@H](Cc1ccccc1)C(=O)O; Nle = CCCC[C@H](N)C(=O)O; For = O=C*

Legend:
[1] = target: T1, receptors in rat pancreas (3H-CCK-8-(SO3 H) binding) (Rattus norvegicus, UniProt P30551); assay: In vitro receptor binding assay, rat pancreas homogenate, 3H-CCK-8-(SO3H) radioligand; conditions: 0.15 nM radioligand, 30 min, 25° C.; read-out: Rat Pancreas IC50 (inhibition of specific 3H-CCK-8-(SO3H) binding)
T1 construct: receptors in homogenized preparations of rat pancreatic cells and bovine striata; from tissue; host or cells: rat pancreas homogenate (48,000 x g pellet)
T1 sequence (P30551 1-444): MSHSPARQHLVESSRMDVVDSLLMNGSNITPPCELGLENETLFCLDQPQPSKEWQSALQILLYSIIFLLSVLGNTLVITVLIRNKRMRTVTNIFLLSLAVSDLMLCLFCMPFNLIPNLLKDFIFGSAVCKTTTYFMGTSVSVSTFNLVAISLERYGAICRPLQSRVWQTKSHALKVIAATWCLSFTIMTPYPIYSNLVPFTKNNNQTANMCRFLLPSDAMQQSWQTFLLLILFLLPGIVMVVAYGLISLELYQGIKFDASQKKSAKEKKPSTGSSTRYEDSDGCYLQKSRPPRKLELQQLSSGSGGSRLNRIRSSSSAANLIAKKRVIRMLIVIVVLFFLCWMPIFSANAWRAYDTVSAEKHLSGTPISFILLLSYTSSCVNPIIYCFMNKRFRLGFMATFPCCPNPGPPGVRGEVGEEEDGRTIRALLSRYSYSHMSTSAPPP
Experimental: This strategy was utilized to minimize central nervous system side effects by identifying peptides with peripheral receptor selectivity. […] The tissue was homogenized 2 x for approx. 15 sec. at 0° C. using a Polytron homogenizer at a setting of 6. The tissue was isolated by centrifugation at 48,000 x g for 10 min. at 0° C. […] Samples were incubated for 30 min. at 25° C. and the incubation terminated by pouring the mixture onto a pre-wet Whatman GF/B filter on a Sandbeck Vacuum Filtration Manifold. The incubation tubes were washed with 2×3 ml of ice-cold HEPES Buffer #2 and the wash filtered through the GF/B filter. The filter was air dried for 10 min. and then placed in a scintillation vial with 12 ml of Beckman HP/b Ready-Solv scintillation cocktail. The vials were shaken for 2 hours and then counted using a Beckman Model 7800 liquid scintillation spectrometer.

[2] = system: Male Sprague-Dawley (CD) rats, food intake; assay: Two-meal feeding assay, intraperitoneal administration; format: in vivo, rat
Experimental: Male Sprague-Dawley (CD) rats weighing 180-200 grams (Charles River Breeding Laboratories) were acclimated to a 12 h light/dark cycle (6 a.m. to 6 p.m.) in a room kept at 22° C. They were subsequently fasted for two days, weighed, placed in individual cages, and a four-day period of meal training was begun. During this time the rats were given ground laboratory chow (Purina Lab Chow) in jars for one hour from 9:00 a.m. until 10:00 a.m., the jars were removed from 10:00 a.m. to 12:00 p.m., and placed back in the cages from 12:00 until 1:00 p.m. Under this `1-2-1` meal feeding regime most rats learn to eat approximately as much Per day during the two hours they have access to food as rats which have food ad libitum over the entire 24-hour day. On the fourth day, the rats were weighed again, and any which lost more than five grams body weight were excluded from the test. The animals were then distributed into experimental (n=5 to 6) and control groups (n=6-12). but not matched for body weight.
Peptides of the invention were suspended either in saline. if soluble, or in 1% gum arabic, if insoluble, at concentrations of 0 to 320 μg/ml/kg body weight and were administered intraperitonerally 15 min before the first meal on day 5 of meal feeding. The rats were then given their meals as they had been during the previous four days, and the food cups were weighed both before and after each meal to determine food consumption. Food intake was expressed as a mean and standard error of the mean in grams consumed or as a percent of control values for the various groups. The treated groups were compared to the control groups by t-test analysis. […]

[3] = target: T2, receptors in bovine striatum (3H-CCK-8-(SO3 H) binding, central receptor) (Bos taurus, UniProt P79266); assay: In vitro receptor binding assay, bovine striatum homogenate, 3H-CCK-8-(SO3H) radioligand; conditions: 0.15 nM radioligand, 30 min, 25° C.; read-out: Bovine Striatum IC50 (inhibition of specific 3H-CCK-8-(SO3H) binding)
T2 construct: receptors in homogenized preparations of rat pancreatic cells and bovine striata; from tissue; host or cells: bovine striatum homogenate (48,000 x g pellet)
T2 sequence (P79266 1-454): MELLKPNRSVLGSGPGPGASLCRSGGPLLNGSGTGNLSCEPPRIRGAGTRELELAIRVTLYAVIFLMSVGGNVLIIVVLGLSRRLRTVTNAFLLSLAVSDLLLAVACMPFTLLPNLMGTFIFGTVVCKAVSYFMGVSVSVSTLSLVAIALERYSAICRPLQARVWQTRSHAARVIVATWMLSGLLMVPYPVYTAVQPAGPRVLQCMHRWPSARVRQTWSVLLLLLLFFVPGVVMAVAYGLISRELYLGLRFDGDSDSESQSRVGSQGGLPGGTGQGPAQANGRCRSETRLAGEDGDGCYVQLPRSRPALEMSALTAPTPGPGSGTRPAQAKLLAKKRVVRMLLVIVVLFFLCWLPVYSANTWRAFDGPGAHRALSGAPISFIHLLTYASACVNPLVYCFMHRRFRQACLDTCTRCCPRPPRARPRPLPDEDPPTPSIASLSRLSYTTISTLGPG
Experimental: Frozen bovine striatum (approx. 5 g) and fresh rat pancreas (approx. 5 g) cleaned of fat and extraneous tissue were homogenized in HEPES buffer #1 (10 mM HEPES+130 mM NaCl+5 mM MgCl2. pH 7.4) using 35 parts buffer per 1 part tissue on a wet weight/volume basis (approx. 175 ml). The tissue was homogenized 2 x for approx. 15 sec. at 0° C. using a Polytron homogenizer at a setting of 6. The tissue was isolated by centrifugation at 48,000 x g for 10 min. at 0° C. The resulting tissue pellet was resuspended in HEPES buffer #2 (10 mM HEPES+130 mM NaCl+5 mM MgCl2 +1 mg/L phenylmethanesulfonyl fluoride (PMSF)+200 mg/L Bacitracin): 1 part striatal tissue (original wet weight) per 80 parts buffer and 1 part pancreas tissue (original wet weight) per 70 parts buffer.
Incubation was initiated by combining various concentrations of native CCK-8 or peptides of formula I, II and III with ^3 H-CCK-8-(SO3 H) (final conc.=0.15 nM) and tissue homogenate (striatum 0.26 mg protein in 2 ml final volume; pancreas 0.165 mg protein in 1 ml final volume). Samples were incubated for 30 min. at 25° C. and the incubation terminated by pouring the mixture onto a pre-wet Whatman GF/B filter on a Sandbeck Vacuum Filtration Manifold. The incubation tubes were washed with 2×3 ml of ice-cold HEPES Buffer #2 and the wash filtered through the GF/B filter. The filter was air dried for 10 min. and then placed in a scintillation vial with 12 ml of Beckman HP/b Ready-Solv scintillation cocktail. The vials were shaken for 2 hours and then counted using a Beckman Model 7800 liquid scintillation spectrometer. Non-specific binding was determined in the presence of 1 micromole native CCK-8 and subtracted from all samples to determine specific binding. The concentration of ^3 peptide necessary to inhibit 50% of total specific H-CCK-8-(SO3 H) binding (IC50 value) was determined by log-probit analysis.

[4] = 32 microgm/Kg i.p., 15 min before first meal, mean ± SEM

| Compound | IC50 [1] | Food Intake 1st Meal [2, 4] | Food Intake 2nd Meal ([2]; 32 microgm/Kg i.p., mean ± SEM) | IC50 [3] | also measured |
| --- | --- | --- | --- | --- | --- |
| CSCC[C@H](NC(=O)[C@H](Cc1ccc(OS(=O)(=O)O)cc1)NC(C)=O)C(=O)NCC(=O)N[C@@H](Cc1cn(C=O)c2ccccc12)C(=O)N[C@@H](CCSC)C(=O)N[C@H](C(=O)N(C)[C@@H](Cc1ccccc1)C(N)=O)[C@@H](C)OS(=O)(=O)O [Example 1, Ac-Tyr(SO3 H)-Met-Gly-Trp(For)-Met-Thr(SO3 H)-N-methyl-Phe-NH2] (Ac-[sY]MGW(For)M[Thr(SO3H)][NMeF]-NH2) | 9.4 nM | 23 ± 13 % of Control | 55 ± 10 % of Control | 1000 nM | – |
| CCCC[C@H](NC(=O)[C@H](Cc1ccc(OS(=O)(=O)O)cc1)NC(C)=O)C(=O)N[C@H](C)C(=O)N[C@@H](Cc1c[nH]c2ccccc12)C(=O)N[C@@H](CCSC)C(=O)N[C@H](C(=O)N(C)[C@@H](Cc1ccccc1)C(N)=O)[C@@H](C)OS(=O)(=O)O [Example 4, Ac-Tyr(SO3 H)-Nle-(D)Ala-Trp-Met-Thr(SO3 H)-n-Methyl-Phe-NH2] (Ac-[sY][Nle][dA]WM[Thr(SO3H)][NMeF]-NH2) | 44 nM | 5 ± 5 % of Control | 79 ± 13 % of Control | 100 nM | – |
| CSCC[C@H](NC(=O)[C@H](Cc1ccc(OS(=O)(=O)O)cc1)NC(C)=O)C(=O)N[C@@H](C)C(=O)N[C@@H](Cc1cn(C=O)c2ccccc12)C(=O)N[C@@H](CCSC)C(=O)N[C@H](C(=O)N(C)[C@@H](Cc1ccccc1)C(N)=O)[C@@H](C)OS(=O)(=O)O [Example 5, Ac-Tyr(SO3 H)-Met-Ala-Trp(For)-Met-Thr(SO3 H)-N-methyl-Phe-NH2] (Ac-[sY]MAW(For)M[Thr(SO3H)][NMeF]-NH2) | 4200 nM | 70 ± 2 % of Control | 133 ± 9 % of Control | 4100 nM | – |
| CSCC[C@H](NC(=O)[C@H](Cc1ccc(OS(=O)(=O)O)cc1)NC(C)=O)C(=O)N[C@@H](C)C(=O)N[C@@H](Cc1c[nH]c2ccccc12)C(=O)N[C@@H](CCSC)C(=O)N[C@H](C(=O)N(C)[C@@H](Cc1ccccc1)C(N)=O)[C@@H](C)OS(=O)(=O)O [Example 6, Ac-Tyr(SO3 H)-Met-Ala-Trp-Met-Thr(SO3 H)-N-methyl-Phe-NH2] (Ac-[sY]MAWM[Thr(SO3H)][NMeF]-NH2) | 100 nM | 14 ± 6 % of Control | 114 ± 9 % of Control | 1750 nM | – |
| CSCC[C@H](NC(=O)[C@H](Cc1ccc(OS(=O)(=O)O)cc1)NC(=O)CNCCNC(C)=O)C(=O)NCC(=O)N[C@@H](Cc1cn(C=O)c2ccccc12)C(=O)N[C@@H](CCSC)C(=O)N[C@H](C(=O)N(C)[C@@H](Cc1ccccc1)C(N)=O)[C@@H](C)OS(=O)(=O)O [Example 7, Ac-Aeg-Tyr(SO3 H)-Met-Gly-Trp(For)-Met-Thr(SO3 H)-N-methyl-Phe-NH2] (H-[N(CH2CH2NHAc)Gly][sY]MGW(For)M[Thr(SO3H)][NMeF]-NH2) | – | 17 ± 9 % of Control | 95 ± 16 % of Control | – | – |
| CCCC[C@H](NC(=O)[C@H](Cc1ccc(OS(=O)(=O)O)cc1)NC(C)=O)C(=O)NCC(=O)N[C@@H](Cc1c[nH]c2ccccc12)C(=O)N[C@@H](CCCC)C(=O)N[C@H](C(=O)N(C)[C@@H](Cc1ccccc1)C(N)=O)[C@@H](C)OS(=O)(=O)O [Example 13, Ac-Tyr-(SO3 H)-Nle-Gly-Trp-Nle-Thr(SO3 H)-N-methyl-Phe-NH2] (Ac-[sY][Nle]GW[Nle][Thr(SO3H)][NMeF]-NH2) | – | 21 ± 12 % of Control | 52 ± 13 % of Control | – | Food Intake 1st Meal ([2]; 1 microgm/Kg i.p.): 36 ± 4 % of Control; Food Intake 2nd Meal ([2]; 1 microgm/Kg i.p.): 71 ± 13 % of Control; Food Intake 1st Meal ([2]; 3 microgm/Kg i.p.): 23 ± 13 % of Control; Food Intake 2nd Meal ([2]; 3 microgm/Kg i.p.): 59 ± 6 % of Control; Food Intake 1st Meal ([2]; 10 microgm/Kg i.p.): 13 ± 1 % of Control; Food Intake 2nd Meal ([2]; 10 microgm/Kg i.p.): 62 ± 8 % of Control; Food Intake 1st Meal ([2]; 16 microgm/Kg i.p.): 27 ± 17 % of Control; Food Intake 2nd Meal ([2]; 16 microgm/Kg i.p.): 45 ± 11 % of Control |
| CSCC[C@H](NC(=O)[C@H](Cc1c[nH]c2ccccc12)NC(=O)CNC(=O)[C@H](Cc1ccc(OS(=O)(=O)O)cc1)NC(C)=O)C(=O)N[C@H](C(=O)N(C)[C@@H](Cc1ccccc1)C(N)=O)[C@@H](C)OS(=O)(=O)O [Example 14, Ac-Tyr(SO3 H)-Gly-Trp-Met-Thr(SO3 H)-N-methyl-Phe-NH2] (Ac-[sY]GWM[Thr(SO3H)][NMeF]-NH2) | – | 36 ± 8 % of Control | 141 ± 9 % of Control | – | Food Intake 1st Meal ([2]; 3 microgm/Kg i.p.): 86 ± 16 % of Control; Food Intake 2nd Meal ([2]; 3 microgm/Kg i.p.): 120 % of Control; Food Intake 1st Meal ([2]; 320 microgm/Kg i.p.): 4 ± 5 % of Control; Food Intake 2nd Meal ([2]; 320 microgm/Kg i.p.): 121 ± 3 % of Control |
